Structures are written as SMILES.

Test [1] addresses Amyloid-beta precursor protein (Homo sapiens) (UniProt P05067). Put plainly: Inhibition of HFIP-pretreated amyloid beta (1 to 42) (unknown origin) aggregation at 10 uM after 36 to 48 hrs by thioflavin-T fluorescence assay relative to control. Conditions: time 36-48 hrs.
Test [2] deals with Acetylcholinesterase (Electrophorus electricus) (UniProt O42275). Put plainly: Inhibition of electric eel AChE at 10 uM using acetylthiocholine as substrate preincubated for 5 mins followed by substrate addition and measured after 5 mins by Ellman's method relative to control. Conditions: time 10.0 min. On the technique in general: Ellman's reagent forms a yellow product with free thiols.

In test [3] the target is Cholinesterase (Equus caballus) (UniProt P81908). The test can be described thus: Inhibition of equine serum BuChE at 10 uM using butyrylthiocholine as substrate preincubated for 5 mins followed by substrate addition and measured after 5 mins by Ellman's method relative to control. The note with it: time 10.0 min.
Test [4] concerns the target Cholinesterase (Homo sapiens, UniProt P06276). Put plainly: Inhibition of human BuchE at 1 uM using butyrylthiocholine as substrate preincubated for 5 mins followed by substrate addition and measured after 5 mins by Ellman's method relative to control. Conditions: time 10.0 min.
Test [5] concerns the target T1, Beta-secretase 1 (Homo sapiens, UniProt P56817).
In test [6] the target is T1, Beta-secretase 1. The note with it: dose 50.0 µM, time 60.0 min.
For test [7], the target named is Sodium- and chloride-dependent GABA transporter 1 (Mus musculus) (UniProt P31648). The test can be described thus: Inhibition of mouse GAT1 expressed in HEK293 cell line assessed as reduction in [3H]GABA uptake at 100 uM incubated for 10 mins relative to control. In kind it is cell-based.
Test [8] deals with T2, GABA transporter 3 (Mus musculus) (UniProt P31649).
T2 sequence (whole entry): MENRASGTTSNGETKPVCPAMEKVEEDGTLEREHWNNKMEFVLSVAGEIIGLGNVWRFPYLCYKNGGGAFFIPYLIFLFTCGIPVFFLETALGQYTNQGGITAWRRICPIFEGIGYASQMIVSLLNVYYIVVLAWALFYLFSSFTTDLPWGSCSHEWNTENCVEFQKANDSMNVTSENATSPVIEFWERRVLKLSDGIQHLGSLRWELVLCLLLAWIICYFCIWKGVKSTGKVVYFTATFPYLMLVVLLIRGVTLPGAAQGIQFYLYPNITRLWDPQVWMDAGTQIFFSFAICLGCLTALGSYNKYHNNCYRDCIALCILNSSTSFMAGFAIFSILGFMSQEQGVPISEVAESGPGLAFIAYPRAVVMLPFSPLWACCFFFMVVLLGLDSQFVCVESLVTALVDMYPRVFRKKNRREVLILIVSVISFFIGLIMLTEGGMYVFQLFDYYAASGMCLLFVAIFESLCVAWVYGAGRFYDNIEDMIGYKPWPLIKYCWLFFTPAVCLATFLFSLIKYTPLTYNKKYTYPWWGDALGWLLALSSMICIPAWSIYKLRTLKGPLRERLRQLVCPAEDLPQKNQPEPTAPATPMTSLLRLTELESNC
Put plainly: Inhibition of mouse GAT2 expressed in HEK293 cell line assessed as reduction in [3H]GABA uptake at 100 uM incubated for 10 mins relative to control. It counts as cell-based.

In test [9] the target is T3, GABA transporter 4 (Mus musculus) (UniProt P31650).
T3 sequence (whole entry): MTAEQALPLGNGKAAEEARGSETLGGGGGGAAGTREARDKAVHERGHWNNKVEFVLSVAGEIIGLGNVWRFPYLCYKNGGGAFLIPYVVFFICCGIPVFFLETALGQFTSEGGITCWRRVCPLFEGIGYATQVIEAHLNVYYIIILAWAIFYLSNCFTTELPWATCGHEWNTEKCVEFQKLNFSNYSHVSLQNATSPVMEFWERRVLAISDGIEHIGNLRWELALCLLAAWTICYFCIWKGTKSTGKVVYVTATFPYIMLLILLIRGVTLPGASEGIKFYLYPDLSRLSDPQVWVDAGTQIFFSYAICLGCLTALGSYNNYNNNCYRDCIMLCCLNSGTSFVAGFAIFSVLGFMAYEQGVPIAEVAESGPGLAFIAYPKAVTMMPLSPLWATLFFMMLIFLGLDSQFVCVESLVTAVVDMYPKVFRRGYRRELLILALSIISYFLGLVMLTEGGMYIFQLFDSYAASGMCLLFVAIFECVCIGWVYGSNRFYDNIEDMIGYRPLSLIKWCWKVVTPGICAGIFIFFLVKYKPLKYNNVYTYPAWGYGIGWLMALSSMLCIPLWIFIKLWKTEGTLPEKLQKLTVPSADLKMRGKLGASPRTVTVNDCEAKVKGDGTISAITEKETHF
The test can be described thus: Inhibition of mouse GAT3 expressed in HEK293 cell line assessed as reduction in [3H]GABA uptake at 100 uM incubated for 10 mins relative to control. In kind it is cell-based.

The target of the next test is T4, GABA transporter 4 (Mus musculus, UniProt P31650).
T4 sequence (P31650 whole entry): T3 sequence (whole entry)
Put plainly: Inhibition of mouse GAT4 expressed in HEK293 cell line assessed as reduction in [3H]GABA uptake incubated for 10 mins. In kind it is cell-based.

The target in test [10] is Sodium- and chloride-dependent GABA transporter 1 (Mus musculus) (UniProt P31648). Put plainly: Inhibition of NO711 binding to mouse GAT1 expressed in HEK cell membranes at 100 uM incubated for 40 mins in presence of NO711 by LC-ESI-MS/MS analysis relative to control. The note with it: Membrane.
Test [11] has as its target Cholinesterase (Equus caballus, UniProt P81908).
Description: Inhibition of equine serum BuChE using butyrylthiocholine as substrate preincubated for 5 mins followed by substrate addition and measured after 5 mins by Ellman's method
Test [12] has as its target Sodium- and chloride-dependent GABA transporter 1 (Mus musculus, UniProt P31648). Put plainly: Inhibition of mouse GAT1 expressed in HEK293 cell line assessed as reduction in [3H]GABA uptake incubated for 10 mins. It counts as cell-based.
In test [13] the target is T3, GABA transporter 4 (Mus musculus). Put plainly: Inhibition of mouse GAT4 expressed in HEK293 cell line assessed as reduction in [3H]GABA uptake at 100 uM incubated for 10 mins relative to control. It counts as cell-based.

Acetylcholinesterase (Electrophorus electricus), sequence (O42275 24-633 limits assumed): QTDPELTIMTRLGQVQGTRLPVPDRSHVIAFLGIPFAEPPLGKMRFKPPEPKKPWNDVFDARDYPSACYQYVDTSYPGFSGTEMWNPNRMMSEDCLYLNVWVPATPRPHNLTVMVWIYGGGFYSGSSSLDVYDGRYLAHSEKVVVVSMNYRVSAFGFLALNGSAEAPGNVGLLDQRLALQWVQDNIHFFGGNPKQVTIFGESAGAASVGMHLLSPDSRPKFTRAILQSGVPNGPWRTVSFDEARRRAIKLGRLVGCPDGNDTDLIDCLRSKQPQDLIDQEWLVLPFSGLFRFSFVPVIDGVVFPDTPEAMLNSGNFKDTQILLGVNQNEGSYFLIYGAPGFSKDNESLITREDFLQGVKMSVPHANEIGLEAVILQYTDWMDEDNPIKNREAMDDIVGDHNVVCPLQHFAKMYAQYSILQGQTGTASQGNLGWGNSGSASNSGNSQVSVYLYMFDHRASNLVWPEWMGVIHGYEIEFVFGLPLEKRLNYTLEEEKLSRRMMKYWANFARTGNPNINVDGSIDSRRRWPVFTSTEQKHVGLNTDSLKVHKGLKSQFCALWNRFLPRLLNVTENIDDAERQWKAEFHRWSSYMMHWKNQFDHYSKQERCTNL
Cholinesterase (Homo sapiens, UniProt P06276), sequence (P06276 whole entry): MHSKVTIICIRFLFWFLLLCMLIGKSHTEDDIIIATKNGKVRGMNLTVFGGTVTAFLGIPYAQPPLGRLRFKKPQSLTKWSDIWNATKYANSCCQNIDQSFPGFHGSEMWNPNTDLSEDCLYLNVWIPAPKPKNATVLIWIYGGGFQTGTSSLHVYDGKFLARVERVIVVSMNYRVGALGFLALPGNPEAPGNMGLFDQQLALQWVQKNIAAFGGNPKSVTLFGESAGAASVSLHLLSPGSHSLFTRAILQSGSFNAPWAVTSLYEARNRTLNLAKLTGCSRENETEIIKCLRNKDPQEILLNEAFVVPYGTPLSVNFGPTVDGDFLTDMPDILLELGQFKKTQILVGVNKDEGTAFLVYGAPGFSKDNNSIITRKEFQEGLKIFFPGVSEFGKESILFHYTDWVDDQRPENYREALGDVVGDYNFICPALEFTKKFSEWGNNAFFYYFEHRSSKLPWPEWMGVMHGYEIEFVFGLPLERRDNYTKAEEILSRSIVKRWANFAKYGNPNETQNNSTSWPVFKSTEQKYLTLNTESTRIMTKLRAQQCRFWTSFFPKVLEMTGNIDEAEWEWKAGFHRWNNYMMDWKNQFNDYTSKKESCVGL
T1 sequence (P56817 whole entry): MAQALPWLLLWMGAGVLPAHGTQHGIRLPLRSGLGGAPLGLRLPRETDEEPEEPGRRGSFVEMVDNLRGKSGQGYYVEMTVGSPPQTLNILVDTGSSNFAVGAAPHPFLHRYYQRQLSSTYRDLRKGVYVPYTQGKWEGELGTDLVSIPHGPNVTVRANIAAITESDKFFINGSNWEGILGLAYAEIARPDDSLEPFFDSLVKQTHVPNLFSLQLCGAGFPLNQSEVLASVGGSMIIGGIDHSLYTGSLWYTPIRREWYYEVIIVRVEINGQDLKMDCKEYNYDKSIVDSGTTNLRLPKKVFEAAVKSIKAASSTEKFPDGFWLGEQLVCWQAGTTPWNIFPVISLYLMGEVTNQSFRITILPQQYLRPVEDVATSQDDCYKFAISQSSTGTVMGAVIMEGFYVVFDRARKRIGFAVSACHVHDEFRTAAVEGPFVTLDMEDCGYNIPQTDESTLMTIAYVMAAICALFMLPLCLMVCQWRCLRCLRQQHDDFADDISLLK
Cholinesterase (Equus caballus), sequence (P81908 whole entry): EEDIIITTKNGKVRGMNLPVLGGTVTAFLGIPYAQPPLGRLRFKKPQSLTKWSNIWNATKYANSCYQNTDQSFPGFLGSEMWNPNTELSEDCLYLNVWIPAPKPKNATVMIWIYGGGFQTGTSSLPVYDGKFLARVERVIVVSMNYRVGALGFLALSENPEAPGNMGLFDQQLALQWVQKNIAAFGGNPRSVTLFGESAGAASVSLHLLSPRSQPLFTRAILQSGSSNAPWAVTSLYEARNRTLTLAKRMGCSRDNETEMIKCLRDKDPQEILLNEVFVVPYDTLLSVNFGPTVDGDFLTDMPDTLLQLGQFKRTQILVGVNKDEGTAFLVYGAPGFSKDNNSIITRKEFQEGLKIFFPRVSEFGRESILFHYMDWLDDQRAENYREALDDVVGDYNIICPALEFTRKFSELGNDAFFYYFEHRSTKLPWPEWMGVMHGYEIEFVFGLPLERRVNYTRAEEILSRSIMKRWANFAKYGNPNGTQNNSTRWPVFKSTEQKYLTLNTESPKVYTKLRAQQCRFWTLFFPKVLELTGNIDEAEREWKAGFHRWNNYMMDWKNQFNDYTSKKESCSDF
Cholinesterase (Equus caballus, UniProt P81908), sequence (P81908 whole entry): as above
Amyloid-beta precursor protein (Homo sapiens), sequence (P05067 whole entry): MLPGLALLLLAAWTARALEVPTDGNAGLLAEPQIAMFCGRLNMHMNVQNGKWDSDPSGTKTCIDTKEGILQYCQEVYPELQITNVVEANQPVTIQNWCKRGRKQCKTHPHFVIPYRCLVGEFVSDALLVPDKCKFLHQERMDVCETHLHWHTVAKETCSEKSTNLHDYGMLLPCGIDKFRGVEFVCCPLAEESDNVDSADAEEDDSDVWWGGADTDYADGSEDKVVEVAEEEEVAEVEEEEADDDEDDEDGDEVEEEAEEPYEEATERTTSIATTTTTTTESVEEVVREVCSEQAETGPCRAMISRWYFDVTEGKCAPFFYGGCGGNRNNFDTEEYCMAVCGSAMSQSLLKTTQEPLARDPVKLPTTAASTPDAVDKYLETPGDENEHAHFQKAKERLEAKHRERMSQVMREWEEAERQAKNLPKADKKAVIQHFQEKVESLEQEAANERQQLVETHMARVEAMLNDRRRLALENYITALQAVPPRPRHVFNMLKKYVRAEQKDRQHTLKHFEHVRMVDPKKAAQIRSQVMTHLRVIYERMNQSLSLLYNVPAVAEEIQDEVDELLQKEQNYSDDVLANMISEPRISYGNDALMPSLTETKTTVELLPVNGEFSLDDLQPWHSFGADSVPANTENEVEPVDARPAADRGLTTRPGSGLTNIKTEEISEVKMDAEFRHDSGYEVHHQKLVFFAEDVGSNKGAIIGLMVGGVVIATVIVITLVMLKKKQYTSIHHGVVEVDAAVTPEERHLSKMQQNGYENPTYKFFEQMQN

For `O=C(CC(c1ccccc1)c1ccccc1)N[C@@H](Cc1ccccc1)[C@@H](O)CNCc1cccc(C(F)(F)F)c1`, the inhibition in test [1] is 20.5%; in test [2] it was 36.8%; in [3], 29.5%; at Cholinesterase [4] it was less than 10%. In addition, 8.3 µM corresponded to half-maximal inhibition against Beta-secretase 1 [5] (IC50).
Regarding `O=C(N[C@@H](Cc1ccccc1)[C@H](O)CNCC1CC1)C(c1ccccc1)c1ccccc1`, the inhibition in test [1] was 20.5%; in [2] it was less than 10%; on Cholinesterase [4] it was 12.3%; against Beta-secretase 1 [6], 44.4%; in test [7], 51%; in test [8] it was 85%. Moreover, the inhibition in test [9] was determined as 54%; in test [10], 74%. Besides, the half-maximal inhibitory concentration (IC50) on GABA transporter 4 came to 74.1 µM; against Cholinesterase [11], 3.21 µM.
On to `O=C(CC(c1ccccc1)c1ccccc1)N[C@@H](Cc1ccccc1)[C@H](O)CNCC1CC1`, for which the inhibition in test [1] was 20.5%; in [2] it was less than 10%; on Cholinesterase [4] it was 41.1%; on Beta-secretase 1 [6], less than 10%; in [8] it was 60%; in test [9], 51%. Also, the inhibition in [10] turned out to be 83%. Moreover, the half-inhibitory concentration (IC50) in [12] turned out to be 39.8 µM; on GABA transporter 4 it was 35.5 µM; against Cholinesterase [11] it was 3.23 µM.
As to `O=C(N[C@@H](Cc1ccccc1)[C@H](O)CNCC(F)(F)F)C(c1ccccc1)c1ccccc1`, the inhibition was 20.5% in test [1]; less than 10% in [2]; 26.3% in test [3]; less than 10% against Cholinesterase [4]; 92% in [7]; 87% in test [8]. The inhibition in test [9] is 92%; in test [13] it was 102%; in [10], 100%. Moreover, the concentration for half-maximal inhibition (IC50) against Beta-secretase 1 [5] is 15.4 µM.
As for `COc1cccc(CNC[C@@H](O)[C@H](Cc2ccccc2)NC(=O)C(c2ccccc2)c2ccccc2)c1`, the inhibition in test [1] is 20.5%; in [2] it was less than 10%; on Cholinesterase [4], 56.5%; against Beta-secretase 1 [6] it was 37%; in test [7], 61%; in test [8], 61%. For the same molecule, the values for the inhibition in [9] and in [10] were 67% and 85%, respectively. Besides, the IC50 on GABA transporter 4 is 33.1 µM; against Cholinesterase [11], 1.55 µM.
In the case of `O=C(CC(c1ccccc1)c1ccccc1)N[C@@H](Cc1ccccc1)[C@H](O)CNCC(F)(F)F`, the inhibition in test [1] is 20.5%; in test [2], less than 10%; in test [3], 19.2%; against Cholinesterase [4] it was less than 10%; against Beta-secretase 1 [6], 24.4%.
As to `CC(C)(NC[C@@H](O)[C@H](Cc1ccccc1)NC(=O)C(c1ccccc1)c1ccccc1)c1ccccc1`, the inhibition in test [1] was 20.5%; in [2] it was less than 10%; in [3] it was 45.9%; at Cholinesterase [4] it was less than 10%; against Beta-secretase 1 [6] it was 76.1%.
Turning to `C[C@H](NC[C@@H](O)[C@H](Cc1ccccc1)NC(=O)C(c1ccccc1)c1ccccc1)c1ccccc1`, the inhibition in test [1] is 20.5%; in test [2], less than 10%; against Cholinesterase [4], 14.5%; on Beta-secretase 1 [6], 61.7%; in [7], 77%; in test [9], 84%. Further, the results for the inhibition in test [13] and in test [10] were 79% and 81%, respectively. On Cholinesterase [11], this molecule returned a half-maximal inhibitory concentration (IC50) of 1.82 µM.
Turning to `O=C(CC(c1ccccc1)c1ccccc1)N[C@@H](Cc1ccccc1)[C@@H](O)CNCc1ccccc1`, the inhibition was 20.5% in [1]; less than 10% in [2]; 67.7% at Cholinesterase [4]; 61% in [7]; 74% in [8]; 76% in [9]. The inhibition in [10] was determined as 83%. The molecule also returned an IC50 against Beta-secretase 1 [5] of 17.4 µM.

Usually inhibition stands for the change of the read-out against control, counted positive when it falls. In general, IC50 refers to the midpoint of a concentration-inhibition curve.

For the origin of these results see ChEMBL document CHEMBL4819069, “Discovery of multifunctional anti-Alzheimer's agents with a unique mechanism of action including inhibition of the enzyme butyrylcholinesterase and γ-aminobutyric acid transporters” (Eur J Med Chem, 2021).
